ChEMBL document CHEMBL3085639, “Novel camphane-based anti-tuberculosis agents with nanomolar activity” (2013)
In brackets after ≈: the same amount, converted by molar mass.

Test system: Mycobacterium tuberculosis
Experiment: Antimycobacterial activity against rifampin/isoniazid-resistant Mycobacterium tuberculosis 43 assessed as growth inhibition after 45 days by Canetti proportional method
Type: functional

Row | Compound | MIC [µM]
1 | CC1(C)[C@@H]2CC[C@@]1(C)[C@H](O)[C@@H]2NC(=O)c1ccco1 | 7.59 (≈ 2 µg/mL)
2 | CC(=O)Oc1ccccc1C(=O)N[C@@H]1[C@H]2CC[C@@](C)([C@@H]1O)C2(C)C | > 15.1
3 | CC1(C)[C@@H]2CC[C@@]1(C)[C@H](O)[C@@H]2NC(=O)c1cccnc1 | 18.2 (≈ 5 µg/mL)
4 | CC1(C)[C@@H]2CC[C@@]1(C)[C@H](O)[C@@H]2NC(=O)/C=C/c1ccccc1 | 6.68 (≈ 2 µg/mL)
5 | CCNC(=O)N[C@@H]1[C@H]2CC[C@@](C)([C@@H]1O)C2(C)C | > 20.8
6 | CC1(C)[C@@H]2CC[C@@]1(C)[C@H](O)[C@@H]2NC(=O)CCc1ccccc1 | 6.63 (≈ 2 µg/mL)
